We go through three compounds from patent publication US9259443B2, “Compositions and methods for the generation of platelets and methods of use thereof” (The Children's Hospital of Philadelphia, priority 2010, dated 2016).

The test system of series [1] is hαIIb+ recipient mice. Description: FL cells grown with metalloproteinase (ADAM17) inhibitors, infused into hαIIb+ mice, derived platelet half-life. The class given is in vivo, mouse.
Series [2] deals with NSG mice. Description: Infusion of human platelets or human ex vivo-grown megakaryocytes into NSG mice. The conditions noted are these: for time of spike of platelets after infusion: NSG mice; for platelets per megakaryocyte: two million large cells. The format is in vivo, mouse. On the procedure: FIG. 7A provides a graph of human platelets infused into immune-suppressed NOD/SCID/[…] NSG mice over time. FIG. 7B provides a graph of the percentage of human platelets over time after infusion of fetal liver megakaryocytes into NSG mice. FIG. 7C provides a graph of human platelets over time after infusion of dimethylfasudil (diMF; 5 μM), a Rho/ROCK1 kinase inhibitor, treated human fetal liver megakaryocytes (large cells) into NSG mice. FIG. 7D provides a graph of human platelets over time after infusion of human megakaryocytes (large cell) from CD34+ bone marrow cells into NSG mice. FIG. 7E provides a graph of human platelets over time after infusion of dimethylfasudil (2 μM)-treated human CD34+ bone marrow megakaryocytes (large cell) into NSG mice.
NSG mice (Shultz et al. (2007) Nat. Rev. Immunol., 7:118-130; Shultz et al. (2005) J. Immunol., 174:6477-89) were infused with human platelets. […] When human fetal liver (FL) megakaryocytes were infused into NSG mice, a spike of platelets was observed within 10 hours of infusion (FIG. 7B). Two million large cells infused yielded about 13 platelets per megakaryocyte.
To increase platelet production, dimethylfasudil (diMF), a Rho/ROCK1 kinase inhibitor, was tested for its ability to promote human FL megakaryocyte maturation. […] Further, the infusion of two million large cells yielded only about 6 platelets per megakaryocyte. Next, human-Megs (large) from bone marrow (BM) CD34+ cells were infused into NSG mice. […] Further, the infusion of two million large cells yielded about 70 platelets per megakaryocyte. When BM CD34+ Megs (large) were treated with DiMF (2 μm) and infused into NSG mice, a spike of platelets was observed immediately (FIG. 7E). Further, the infusion of two million large cells yielded only about 4 platelets per megakaryocyte.

Setting [3] is: BM CD34+ Megs (large) treated with DiMF 2 μm.
[4] abbreviates: human FL-megakaryocytes (large) treated with DiMF 5 μm.

Molecules are shown by their SMILES.

As for `CC(C)C[C@H](CC(=O)NO)C(=O)N[C@@H](Cc1ccc2ccccc2c1)C(=O)N[C@@H](C)C(=O)NCCN` [TAP-1], in series [1] (FL cells grown with TAP-1 10 μM), the “change in derived platelet half-life” value is “no change”.

In the case of `Cc1cncc2cccc(S(=O)(=O)N3CCCNC[C@@H]3C)c12` [DiMF, dimethylfasudil], in series [2] (setting [3]), the “time of spike of platelets after infusion” value is given as “immediately” and the platelets per megakaryocyte result is “about 4”. In series [2] (setting [4]), the “time of spike of platelets after infusion” value is on record as “within about one hour” and the platelets per megakaryocyte result was “about 6”.

In the case of `CNC(=O)[C@H](Cc1c[nH]c2ccccc12)NC(=O)[C@@H](CC(=O)NO)CC(C)C` [GM6001], the “change in derived platelet half-life” value in series [1] (FL cells grown with GM6001 100 μM) is recorded as “no change”.
